Converted amounts (≈) assume the structure as drawn. The source made the active and inactive calls. The rule behind the calls is not given here.
Columns and labels:
[1] = test system: Candida albicans; experiment: microbe, parasite or virus in culture; assay type: functional; settings: 0304103, time 48 hrs
Description: Synergistic antifungal activity against azole-resistant Candida albicans 0304103 assessed as fungal growth inhibition measured after 48 hrs by CLSI based micro-dilution broth method

[2] = test system: HEL; experiment: Antiproliferative activity against human HEL cells assessed as cell growth inhibition incubated for 24 hrs by CCK-8 assay; assay type: functional, cell-based
[3] = test system: HL-60; experiment: Antiproliferative activity against human HL-60 cells assessed as cell growth inhibition incubated for 24 hrs by CCK-8 assay; assay type: functional, cell-based; settings: HL-60, 24 h
[4] = test system: Candida albicans; experiment: microbe, parasite or virus in culture; assay type: functional; settings: 0304103, time 48 hrs; remark: listed apart in the source
Description: Synergistic antifungal activity against azole-resistant Candida albicans 0304103 assessed as fungal growth inhibition measured after 48 hrs in presence of FLC by CLSI based micro-dilution broth method

[5] = test system: Cryptococcus neoformans; experiment: Antifungal activity against Cryptococcus neoformans H99 assessed as fungal growth inhibition measured after 48 hrs by CLSI based micro-dilution broth method; assay type: functional
[6] = biological target: Bromodomain-containing protein 4 (Homo sapiens, UniProt O60885); experiment: Inhibition of recombinant BRD4 (unknown origin) incubated for 120 mins by TR-FRET assay relative to control; parameters: concentration or dose not given beside the values
[7] = test system: MDA-MB-231; experiment: Antiproliferative activity against human MDA-MB-231 cells assessed as cell growth inhibition incubated for 24 hrs by CCK-8 assay; assay type: functional, cell-based; settings: MDA-MB-231, 24 h
[8] = test system: Candida albicans; assay type: functional, 0304103; settings: time 48 hrs
Description: Synergistic antifungal activity against azole-resistant Candida albicans 0304103 assessed as fractional inhibitory concentration index measured after 48 hrs in presence of FLC by CLSI based micro-dilution broth method

[9] = test system: K562; experiment: Antiproliferative activity against human K562 cells assessed as cell growth inhibition incubated for 24 hrs by CCK-8 assay; assay type: functional, cell-based; settings: K562, 24 h
[10] = biological target: Histone deacetylase 1 (Homo sapiens, UniProt Q13547); experiment: Inhibition of full-length recombinant human HDAC1 (1 to 482 residues) expressed in baculovirus infected insect cells using Ac-Leu-Gly-Lys(Ac)-AMC as substrate incubated for 30 mins by fluorescence based assay; parameters: species or system Insect cell
Chain of Histone deacetylase 1 (Q13547 whole entry, the tested form may be a part): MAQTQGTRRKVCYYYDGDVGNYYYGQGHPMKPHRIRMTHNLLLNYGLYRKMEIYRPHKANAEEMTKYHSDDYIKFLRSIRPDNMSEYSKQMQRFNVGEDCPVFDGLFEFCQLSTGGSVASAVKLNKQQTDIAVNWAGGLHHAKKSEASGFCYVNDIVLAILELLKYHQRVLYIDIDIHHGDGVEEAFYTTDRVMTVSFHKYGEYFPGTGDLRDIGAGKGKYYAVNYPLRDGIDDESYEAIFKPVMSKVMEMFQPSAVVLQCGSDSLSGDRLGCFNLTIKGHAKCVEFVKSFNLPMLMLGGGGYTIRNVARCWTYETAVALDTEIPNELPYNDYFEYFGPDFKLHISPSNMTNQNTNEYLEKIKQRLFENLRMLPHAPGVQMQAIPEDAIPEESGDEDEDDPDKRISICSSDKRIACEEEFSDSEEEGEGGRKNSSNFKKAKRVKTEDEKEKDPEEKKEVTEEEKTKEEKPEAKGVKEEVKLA

[11] = test system: Candida albicans; experiment: Synergistic antifungal activity against Candida albicans 0304103 infected in ICR mouse assessed as decrease in kidney fungal load at 20 mg/kg, ip for 5 consecutive days; assay type: functional, organism-based; settings: time 5.0 day
[12] = test system: MDA-MB-231; experiment: Induction of apoptosis in human MDA-MB-231 cells assessed as late apoptotic cells at 10 uM incubated for 48 hrs by Annexin V-FITC/PI staining based flow cytometry relative to control; assay type: functional
[13] = test system: MDA-MB-231; experiment: Induction of apoptosis in human MDA-MB-231 cells assessed as late apoptotic cells at 5 uM incubated for 48 hrs by Annexin V-FITC/PI staining based flow cytometry relative to control; assay type: functional
[14] = test system: HL-60; experiment: Antiproliferative activity against human HL-60 cells assessed as cell growth inhibition incubated for 24 hrs in presence of SAHA by CCK-8 assay; assay type: functional, cell-based; settings: HL-60, 24 h
[15] = test system: Candida albicans; experiment: Synergistic antifungal activity against azole-resistant Candida albicans 0304103 assessed as fractional inhibitory concentration index measured after 48 hrs in presence of FLC and SAHA by CLSI based micro-dilution broth method; assay type: functional
[16] = test system: MDA-MB-231; experiment: Induction of apoptosis in human MDA-MB-231 cells assessed as late apoptotic cells at 2.5 uM incubated for 48 hrs by Annexin V-FITC/PI staining based flow cytometry relative to control; assay type: functional
[17] = test system: Candida albicans; experiment: Synergistic antifungal activity against azole-resistant Candida albicans 0304103 assessed as fungal growth inhibition measured after 48 hrs in presence of SAHA by CLSI based micro-dilution broth method; assay type: functional
[18] = test system: HEL; experiment: Antiproliferative activity against human HEL cells assessed as cell growth inhibition incubated for 24 hrs in presence of SAHA by CCK-8 assay; assay type: functional, cell-based
[19] = test system: MDA-MB-231; experiment: Antiproliferative activity against human MDA-MB-231 cells assessed as cell growth inhibition incubated for 24 hrs in presence of SAHA by CCK-8 assay; assay type: functional, cell-based; settings: MDA-MB-231, 24 h
[20] = test system: Candida albicans; experiment: Synergistic antifungal activity against azole-resistant Candida albicans 0304103 assessed as fungal growth inhibition at 32 ug/ml measured upto 24 hrs in presence of FLC by absorbance based assay; assay type: functional, organism-based; settings: dose 32.0 µg/ml
[21] = test system: Candida albicans; experiment: Synergistic antifungal activity against azole-resistant Candida albicans 0304103 assessed as fungal growth inhibition measured after 48 hrs in presence of FLC and SAHA by CLSI based micro-dilution broth method; assay type: functional
[22] = test system: Cryptococcus neoformans; experiment: Antifungal activity against Cryptococcus neoformans H99 assessed as fungal growth inhibition measured after 48 hrs in presence of SAHA by CLSI based micro-dilution broth method; assay type: functional
[23] = test system: MDA-MB-231; experiment: Antitumor activity against human MDA-MB-231 cells xenografted in Balb/c nude mouse assessed as tumor growth inhibition at 10 mg/kg, ip qd for 21 consecutive days relative to control; assay type: functional; settings: MDA-MB-231, 480 h, time 20 day, read-out: TGI
[24] = test system: K562; experiment: Antiproliferative activity against human K562 cells assessed as cell growth inhibition incubated for 24 hrs in presence of SAHA by CCK-8 assay; assay type: functional, cell-based; settings: K562, 24 h
[25] = test system: Candida albicans; experiment: Antifungal activity against azole-resistant Candida albicans 0304103 assessed as fungal growth inhibition at 1 to 4 ug/ml measured upto 24 hrs by absorbance based assay; assay type: functional, organism-based; settings: dose 1-4 µg/ml
[26] = test system: Candida albicans; experiment: Antifungal activity FLC-resistant Candida albicans 0304103 assessed as hyphal formation at 32 ug/ml incubated for 3 hrs by inverse fluorescent microscopy; assay type: functional, organism-based; settings: dose 32.0 µg/ml

Structure (SMILES) | MIC80 [1] | IC50 [2] | IC50 [3] | MIC80 [4] | MIC80 [5] | inhibition [6] | IC50 [7] | fractional inhibitory concentration index (FICI) [8] | IC50 [9] | IC50 [10] | further results
COc1cc2c(cc1-c1c(C)noc1C)[nH]c1nc(C)nc(NCCCCCC(=O)NO)c12 | > 64 µg/mL | 7.1 µM | 7.9 µM | 2 µg/mL (≈ 4.42 µM) | 32 µg/mL (≈ 70.7 µM) | 90.8% | > 50 µM | 0.16 | 17 µM | 0.124 µM | –
COc1cc2c(cc1-c1c(C)noc1C)[nH]c1nc(C)nc(NCc3ccc(C(=O)NO)cc3)c12 | > 64 µg/mL | 2.7 µM | 2.4 µM | 2 µg/mL (≈ 4.23 µM) | 64 µg/mL (≈ 135 µM) | 97.5% | 8.3 µM | 0.062 | 1.8 µM | 0.448 µM | –
COc1cc2c(cc1-c1c(C)noc1C)[nH]c1nc(C)nc(NCCCCCC(=O)Nc3ccc(/C=C/C(=O)NO)cc3)c12 | > 64 µg/mL | > 50 µM | 3.1 µM | 1 µg/mL (≈ 1.67 µM) | 4 µg/mL (≈ 6.69 µM) | 58.3% | 16 µM | 0.078 | 6 µM | 1.1 µM | –
COc1cc2c(cc1-c1c(C)noc1C)[nH]c1nc(C)nc(Nc3ccc(/C=C/C(=O)NO)cc3)c12 | > 64 µg/mL | > 50 µM | > 50 µM | 0.5 µg/mL (≈ 1.03 µM) | 16 µg/mL (≈ 33 µM) | 55.2% | 11 µM | 0.13 | > 50 µM | 1.2 µM | –
COc1cc2c(cc1-c1c(C)noc1C)[nH]c1nc(C)nc(NCCCCCC(=O)Nc3ccc(C(=O)NO)cc3)c12 | > 64 µg/mL | > 50 µM | 6.5 µM | 1 µg/mL (≈ 1.75 µM) | 4 µg/mL (≈ 7 µM) | 79.7% | 16 µM | 0.047 | 18 µM | 0.086 µM | –
COc1cc2c(cc1-c1c(C)noc1C)[nH]c1ncnc(NCCCCCC(=O)NO)c12 | > 64 µg/mL | 13 µM | > 50 µM | 0.5 µg/mL (≈ 1.14 µM) | 32 µg/mL (≈ 73 µM) | 64.7% | > 50 µM | 0.5 | 17 µM | 0.203 µM | –
COc1cc2c(cc1-c1c(C)noc1C)[nH]c1ncnc(NCCCCCCCC(=O)NO)c12 | > 64 µg/mL | 15 µM | > 50 µM | 2 µg/mL (≈ 4.29 µM) | 2 µg/mL (≈ 4.29 µM) | 85.8% | 3.8 µM | 0.062 | 8.9 µM | 0.037 µM | –
COc1cc2c(cc1-c1c(C)noc1C)[nH]c1nc(C)nc(Nc3cc(C4CC4)nn3C)c12 | > 64 µg/mL | 0.6 µM | 1.5 µM | 16 µg/mL (≈ 36.1 µM) | 32 µg/mL (≈ 72.2 µM) | – | 3.8 µM | 1.2 | 2.3 µM | – | Activity [11]: inactive; Activity [12]: 16.93%; Activity [13]: 9.99%; IC50 [14]: 1.4 µM; fractional inhibitory concentration index (FICI) [15]: 0.26; Activity [16]: 8.25%; MIC80 [17]: > 64 µg/mL; IC50 [18]: 0.4 µM; IC50 [19]: 1.6 µM; Activity [20]: inactive; MIC80 [21]: 1 µg/mL; MIC80 [22]: 64 µg/mL; inhibition in vivo at 10 mg/kg [23]: 22%; IC50 [24]: 0.00021 µM
OC(Cn1cncn1)(Cn1cncn1)c1ccc(F)cc1F | – | – | – | – | – | – | – | – | – | – | Activity [25]: inactive; Activity [26]: Active
COc1cc2c(cc1-c1c(C)noc1C)[nH]c1nc(C)nc(Nc3cccc(C(=O)NO)c3)c12 | > 64 µg/mL | > 50 µM | > 50 µM | > 64 µg/mL | > 64 µg/mL | 14.8% | 9.8 µM | >2 | 3.8 µM | > 2 µM | –
COc1cc2c(cc1-c1c(C)noc1C)[nH]c1ncnc(NCCCCCC(=O)Nc3ccc(/C=C/C(=O)NO)cc3)c12 | > 64 µg/mL | 8.9 µM | 3.8 µM | 1 µg/mL (≈ 1.71 µM) | 2 µg/mL (≈ 3.43 µM) | 56.1% | 14 µM | 0.26 | 8.1 µM | 0.252 µM | –
O=C(CCCCCCC(=O)Nc1ccccc1)NO [VORINOSTAT] | – | – | – | – | – | – | – | – | – | – | Activity [11]: inactive; Activity [12]: 27.19%; Activity [13]: 22.96%; Activity [16]: 16.91%
COc1cc2c(cc1-c1c(C)noc1C)[nH]c1nc(C)nc(NCCCCCCCC(=O)NO)c12 | > 64 µg/mL | 3.3 µM | > 50 µM | 4 µg/mL (≈ 8.32 µM) | 64 µg/mL (≈ 133 µM) | 86.2% | 7.8 µM | 0.12 | 3 µM | 0.2 µM | –
COc1cc2c(cc1-c1c(C)noc1C)[nH]c1ncnc(NCCCCC(=O)NO)c12 | > 64 µg/mL | > 50 µM | > 50 µM | > 64 µg/mL | > 64 µg/mL | 11.1% | > 50 µM | >2 | > 50 µM | > 2 µM | –
COc1cc2c(cc1-c1c(C)noc1C)[nH]c1ncnc(Nc3ccc(/C=C/C(=O)NO)cc3)c12 | > 64 µg/mL | > 50 µM | > 50 µM | 8 µg/mL (≈ 17 µM) | 16 µg/mL (≈ 34 µM) | 67.5% | 6.3 µM | 0.25 | 11 µM | > 2 µM | –
COc1cc2c(cc1-c1c(C)noc1C)[nH]c1nc(C)nc(Nc3ccc(C(=O)NO)cc3)c12 | > 64 µg/mL | > 50 µM | 2.3 µM | 0.5 µg/mL (≈ 1.09 µM) | > 64 µg/mL | 79.8% | 9.3 µM | 0.07 | > 50 µM | 0.395 µM | –
COc1cc2c(cc1-c1c(C)noc1C)[nH]c1ncnc(Nc3ccc(C(=O)NO)cc3)c12 | 64 µg/mL (≈ 144 µM) | > 50 µM | 6.7 µM | 8 µg/mL (≈ 18 µM) | 64 µg/mL (≈ 144 µM) | 53.4% | 19 µM | 0.25 | > 50 µM | 0.974 µM | –
